From ChEMBL document CHEMBL5500342, “Rational molecular design converting fascaplysin derivatives to potent broad-spectrum inhibitors against bacterial pathogens via targeting FtsZ” (Eur J Med Chem, 2024)
Calls of active or inactive are those of the source. The rule behind the calls is not given here.

Legend:
[1] = test system: Staphylococcus aureus; assay: Inhibition of biofilm formation in methicillin-resistant Staphylococcus aureus ATCC43300 assessed as decrease in biofilm formation rate at higher concentration incubated for 24 hrs by crystal violet staining based analysis relative to control; assay type: functional; set-up: scale not given: the % may be the effect or the level left
[2] = test system: Cell membrane; assay: Disruption of cell membrane integrity in penicillin-susceptible Escherichia coli ATCC25922 assessed as scattered leakage of content at 4 times of MIC incubated for 2 hrs by transmission electron microscopic analysis; assay type: cell membranes
[3] = test system: Escherichia coli; assay: Antibacterial activity against penicillin-susceptible Escherichia coli ATCC25922 assessed as reduction in bacterial growth at 0.5 times of MIC incubated for 18 to 24 hrs and measured after 25 passages by drug resistance assay; assay type: functional, organism-based
[4] = test system: Escherichia coli; assay: Antibacterial activity against penicillin-susceptible Escherichia coli ATCC25922 assessed as log reduction in bacterial count measured after 8 hrs by time kill kinetics assay; assay type: functional, organism-based
[5] = test system: Escherichia coli; assay: Drug resistance, ratio of MIC for penicillin-susceptible Escherichia coli ATCC25922 incubated for 18 to 24 hrs and measured after 4 passages to MIC for penicillin-susceptible Escherichia coli ATCC25922 measured after 18 to 24 hrs; assay type: functional
[6] = test system: Cell membrane; assay: Disruption of cell membrane integrity in methicillin-resistant Staphylococcus aureus ATCC43300 assessed as increase in cellular debris at 4 times of MIC incubated for 2 hrs by transmission electron microscopic analysis; assay type: cell membranes
[7] = test system: Escherichia coli; assay: Antibacterial activity against penicillin-susceptible Escherichia coli ATCC25922 assessed as reduction in bacterial count incubated for 24 hrs by time kill kinetics assay; assay type: functional, organism-based
[8] = test system: Cell membrane; assay: Disruption of cell membrane integrity in methicillin-resistant Staphylococcus aureus ATCC43300 assessed as cell wall disruption at 4 times of MIC incubated for 2 hrs by transmission electron microscopic analysis; assay type: cell membranes

O=C1c2ccccc2-[n+]2ccc3c([nH]c4ccc(-c5ccccc5Cl)cc43)c21.[Cl-]
Activity [1]: 15% | Activity [2]: Active | Activity [3]: Active

O=C1c2ccccc2-[n+]2ccc3c([nH]c4ccc(-c5ccccc5F)cc43)c21.[Cl-]
Activity [4]: inactive | Ratio [5]: 12

O=C1c2ccccc2-[n+]2ccc3c([nH]c4ccc(-c5ccccc5C(F)(F)F)cc43)c21.[Cl-]
Activity [6]: Active | Activity [7]: Dose-Dependent Effect | Activity [8]: Active
